Our source for the Kd, ΔTm and IC50 values is US20250188110A1, “SPECIFIC SMALL MOLECULE INHIBITORS THAT BLOCK KMT9 METHYLTRANSFERASE ACTIVITY AND FUNCTION” (ALBERT-LUDWIGS-UNIVERSITÄT FREIBURG, priority 2021, published 2025).

Where two headings read alike, the source gives them in different places.

The target in assay [1] is T1, KMT9 (Homo sapiens, UniProt Q9Y5N5).
T1 sequence (Q9Y5N5 1-214): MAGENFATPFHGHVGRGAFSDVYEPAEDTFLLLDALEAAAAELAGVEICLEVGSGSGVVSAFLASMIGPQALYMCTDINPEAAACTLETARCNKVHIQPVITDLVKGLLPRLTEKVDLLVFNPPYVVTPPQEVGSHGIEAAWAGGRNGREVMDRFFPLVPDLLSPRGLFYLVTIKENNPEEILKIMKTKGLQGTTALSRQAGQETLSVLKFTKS
T1 sequence (Q9UI30 1-120 isoform Q9UI30-2 partner): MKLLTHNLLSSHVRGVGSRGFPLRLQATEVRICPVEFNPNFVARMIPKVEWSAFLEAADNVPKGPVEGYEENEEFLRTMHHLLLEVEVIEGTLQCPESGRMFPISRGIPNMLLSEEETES
The assay is described as follows: Microscale thermophoresis (MST) KMT9 binding. The procedure: To determine the binding affinity of the compounds according to the present invention and KMT9, microscale thermophoresis (MST) analysis was performed with a NanoTemper Monolith NT.115 instrument (NanoTemper Technologies GmbH). KMT9 was labelled with a RED-Tris-NTA labelling kit (NanoTemper Technologies GmbH) based on the manufacturer's instructions. Buffer including 25 mM HEPES (pH 7.5), 100 mM NaCl, 1 mM DTT and 0.05% Tween was used for the reaction buffer. Varying concentrations of the tested compounds of formula (I) as indicated in Table 1 were titrated against His-tag labelled KMT9 proteins (20 nM). Samples were loaded into standard Capillaries (NanoTemper Technologies GmbH) and MST measurements were performed using 40% MST power and 100% LED power. For each set of binding experiments, MST measurement was carried out with Binding Affinity module in MO.Control program under Nano-RED Excitation. Datasets were processed with the MO.Affinity Analysis software (NanoTemper Technologies GmbH).
For the results of the microscale thermophoresis (MST) assay shown as “MST” in Table 1, “A” represents a Kd of equal to or less than 10 nM (Kd≤10 nM); “B” represents a Kd of greater than 10 nM and equal to or less than 100 nM (10 nM<Kd<100 nM); “C” represents a Kd of greater than 100 nM and equal to or less than 1000 nM (100 nM<Kd ≤ 1000 nM); “D” represents a Kd of greater than 1000 nM (1000 nM<Kd).
In general terms: In MST a laser heats a spot of the sample, and binding alters the fluorescence response.

The target in assay [2] is T1, KMT9. The assay is described as follows: KMT9 thermal shift assay (SyproOrange). It is filed as binding. The note with it: 500 µM compound. The procedure:
The assay was carried out in 96-well Hard-Shell PCR plates (Bio-Rad Laboratories Inc.). Assay buffer consisted of 50 mM BTP, 1 mM MgCl2 and 1 mM DTT at a pH of 8.5 (adjusted using 1 M HCl and 1 M NaOH). 20X inhibitor stock (in DMSO), 2X enzyme stock and 4X SyproOrange (SO) stock (both in assay buffer) were prepared. 1 μL of 20X compound, 4 μL of assay buffer, 10 μL of 2X KMT9 and 5 μL of 4X SO were pipetted. For the no-compound control, 20X inhibitor stock was replaced by DMSO. The final volume was 20 μL. The plate was spun down at 700 rpm for 1 min using a Hettich UNIVERSAL 320 centrifuge and incubated at 25° C., shaking at 600 rpm. After incubation, the plate was spun down for 1 min at 700 rpm and measurement was conducted using a CFX96 Touch Real-Time PCR Detection System (Bio-Rad Laboratories Inc.). The plate was equilibrated at 20° C. for 4 min and then heated stepwise at a rate of 1° C. per 15 s until 95° C. After every step, fluorescence was measured in FRET mode. Calculation of melting points was conducted by a Boltzman sigmoidal model using GraphPad Prism 7.0.
For the results of the thermal shift assay shown as “Thermal shift” in Table 1, “++++” represents a ΔTm of greater 20 K, “+++” represents a ΔTm of greater than 15 K and less than or equal to 20 K (15 K<ΔTm≤20 K); “++” represents a ΔTm of greater than 10 K and less than or equal to 15 K (10 K<ΔTm ≤ 15 K); “+” represents a ΔTm of equal to or less than 10 K (ΔTm≤10 K).

The target in assay [3] is T1, KMT9. The assay is described as follows: KMT9 methyltransferase inhibition assay, 3H-SAM scintillation (entries 1-154). In kind it is biochemical. The note with it: entries 1-154: 3H-SAM assay, 25 nM KMT9, 5 μM ETF1. The procedure: The assay was carried out in 0.5 mL Eppendorf tubes in duplicates. Assay buffer consisted of 50 mM BTP, 1 mM MgCl2, 1 mM DTT and 0.01% Triton-X^100 at a pH of 8.5 (adjusted using 1 M HCl and 1 M NaOH). 20X inhibitor stock (in DMSO), 2X enzyme stock and 4X substrate mix (both in assay buffer) were prepared. The substrate mix consisted of Tritium-labelled S-adenosylmethionine (3H-SAM), S-adenosylmethionine (SAM) and eukaryotic peptide chain release factor subunit1 (Homo sapiens, residues 140-275)(ETF1). Final assay concentrations were set to 25 nM KMT9, 0.3 μM 3H-SAM, 0.7 µM SAM and 5 μM ETF1. […] 5 μL of 4x substrate mix was added to initiate the reaction. The final reaction volume was 20 μL. For the positive control, the compound of formula (I) was replaced by DMSO; for the negative control, the compound of formula (I) was replaced by DMSO and KMT9 was replaced by assay buffer. The reaction mix was incubated in an Eppendorf thermomixer comfort at 30° C. for 2 h, shaking at 300 rpm. The reaction was quenched using 5 μL 50% trichloroacetic acid (TCA) and incubated at 25° C. for 5 minutes. 22 μL of the mixture was transferred into 96-well MultiScreen@HTS FB filter plates (Merck KGaA, Darmstadt, Germany) and washed four times with 10% TCA and two times with 100% ethanol. The plate was dried overnight, the filters were transferred into individual 6 mL Pony Vials (Perkin Elmer Inc, Waltham, MA, USA) and incubated in 3 mL of Ultima Gold scintillation cocktail (Perkin Elmer Inc, Waltham, MA, USA) for 30 minutes. The scintillation signal was measured for 3x 1 min using TriCarb 2910 TR (Perkin Elmer) scintillation counter in 3H CPM mode (LL: 0, UL: 18.6). Inhibition was calculated using the following formula: […]
With xc: signal of compound, Xpos: mean signal of positive control, Xneg: mean signal of negative control. Data fitting was carried out by GraphPad 7.0 using nonlinear fit ([Inhibitor]vs. response-variable slope (four parameters)).
For the results of the methyltransferase inhibition assay shown as “Inhibition” in Table 1, “I” represents an IC50 less than 0.1 μM, “II” represents an IC50 equal or higher than 0.1 μM and less than 1 μM, “III” represents an IC50 equal or higher than 1 µM and less than 10 µM and “IV” represents an IC50 equal or higher than 10 µM

[4] abbreviates: microscale thermophoresis, His-tag labelled KMT9 (20 nM), read-out: MST.
Where [5] appears, read: ΔTm, 2 μM KMT9, 5X SO, read-out: Thermal shift.
The mark [6] stands for this setting: 2 μM KMT9, read-out: Thermal shift (ΔTm).

Consider `CNc1ncnc2c1ccn2[C@@H]1C[C@H](CNCCC(=O)NCCc2ccccc2)[C@@H](O)[C@H]1O` (racemic) [434 (306), 3-((((1R,2R,3S,4R)-2,3-dihydroxy-4-(4-(methylamino)-7H-pyrrolo[2,3-d]pyrimidin-7-yl)cyclopentyl)methyl)amino)-N-phenethylpropanamide and 3-((((1S,2R,3S,4R)-2,3-dihydroxy-4-(4-(methylamino)-7H-pyrrolo[2,3-d]pyrimidin-7-yl)cyclopentyl)methyl)amino)-N-phenethylpropanamide], for which, at KMT9 [1] (setting [4]), the Kd is greater than 1000 nM. The ΔTm at 500 µM on KMT9 [2] (setting [5]) is no more than 10 °C. In addition, at KMT9 [3], the IC50 (as a rule, the concentration that gives 50% inhibition) was greater than 10000 nM.

Consider `CNc1ncnc2c1ccn2[C@@H]1C[C@H](CNCC2CNCCO2)[C@@H](O)[C@H]1O` (mixture of isomers) [435 (307), (1R,2S,3R,5R)-3-(4-(methylamino)-7H-pyrrolo[2,3-d]pyrimidin-7-yl)-5-(((morpholin-2-ylmethyl)amino)methyl) cyclopentane-1,2-diol and (1R,2S,3R,5S)-3-(4-(methylamino)-7H-pyrrolo[2,3-d]pyrimidin-7-yl)-5-(((morpholin-2-ylmethyl)amino)methyl) cyclopentane-1,2-diol], for which, on KMT9 [1] (setting [4]), the Kd was greater than 1000 nM. For the same compound, the ΔTm at 500 µM on KMT9 [2] (setting [5]) is no more than 10 °C. This compound also gave an IC50 against KMT9 [3] greater than 10000 nM.

Turning to `CNc1ncnc2c1ccn2[C@@H]1C[C@H](CN2CCC[C@]23CCCNC3)[C@@H](O)[C@H]1O` (single isomer, unassigned) [449 (321)], the Kd at KMT9 [1] (setting [4]) is greater than 1000 nM. The ΔTm at 500 µM on KMT9 [2] (setting [5]) is no more than 10 °C. The IC50 on KMT9 [3] is greater than 10000 nM.

On to `CNc1ncnc2c1ccn2[C@@H]1C[C@H](CN2CCC[C@@]23CCCNC3)[C@@H](O)[C@H]1O` (single isomer, unassigned) [450 (322)], for which the Kd on KMT9 [1] (setting [4]) was greater than 1000 nM. The ΔTm at 500 µM at KMT9 [2] (setting [5]) is no more than 10 °C. Moreover, the IC50 on KMT9 [3] is greater than 10000 nM.

Take `CNc1ncnc2c1ccn2[C@@H]1C[C@H](CNCCCNCCc2cccc(Oc3ccccc3)c2)[C@@H](O)[C@H]1O` [287 (184)]: the Kd at KMT9 [1] (setting [4]) fell in the range of 100 to 1000 nM. Also, on KMT9 [2] (setting [5]), the ΔTm at 500 µM lay in the range of 10 to 15 °C. Further, the IC50 against KMT9 [3] fell in the range of 1000 to 10000 nM.

As to `CNc1ncnc2c1ccn2[C@@H]1C[C@H](CNCCCNCCc2cccc(N(C)c3ccccc3)c2)[C@@H](O)[C@H]1O` [289 (186), (1S,2R,3R,5R)-3-(((3-((3-(methyl(phenyl)amino)phenethyl)amino)propyl)amino)methyl)-5-(4-(methylamino)-7H-pyrrolo[2,3-d]pyrimidin-7-yl) cyclopentane-1,2-diol], the Kd on KMT9 [1] (setting [4]) was greater than 1000 nM. Moreover, at KMT9 [2] (setting [5]), the ΔTm at 500 µM fell in the range of 10 to 15 °C. The IC50 at KMT9 [3] was greater than 10000 nM.

As for `Nc1ncnc2c1c(-c1ccccc1)cn2[C@@H]1C[C@H](CNCCCNCCc2ccc(F)cc2)[C@@H](O)[C@H]1O` [340 (244), (1R,2S,3R,5R)-3-(4-amino-5-phenyl-7H-pyrrolo[2,3-d]pyrimidin-7-yl)-5-(((3-((4-fluorophenethyl)amino)propyl)amino)methyl) cyclopentane-1,2-diol], the Kd on KMT9 [1] (setting [4]) was in the range of 10 to 100 nM. This compound showed an IC50 against KMT9 [3] of 100 to 1000 nM.

For `Nc1ncnc2c1ncn2[C@@H]1O[C@H](C(=O)NCCCNCCc2ccc3ccccc3c2)[C@@H](O)[C@H]1O` [688 (222), (2S,3S,4R,5R)-5-(6-amino-9H-purin-9-yl)-3,4-dihydroxy-N-(3-((2-(naphthalen-2-yl)ethyl)amino)propyl) tetrahydrofuran-2-carboxamide], the IC50 on KMT9 [3] is greater than 10000 nM.

Regarding `O[C@@H]1[C@H](O)[C@@H]([C@@H]2CCCNC2)C[C@H]1n1cc(-c2nccs2)c2cncnc21` [Compound 401, (1S,2R,3R,5R)-3-((S)-piperidin-3-yl)-5-(5-(thiazol-2-yl)-7//pyrrolo[2,3-a]pyrimidin-7-yl) cyclopentane-1,2-diol], the ΔTm at 500 µM on KMT9 [2] (setting [6]) was no more than 10 °C.

`O[C@@H]1[C@H](O)[C@@H]([C@H]2CCCNC2)C[C@H]1n1cc(-c2nccs2)c2cncnc21` [Compound 402, (1S,2R,3R,5R)-3-((R)-piperidin-3-yl)-5-(5-(thiazol-2-yl)-7H-pyrrolo[2,3-a]pyrimidin-7-yl) cyclopentane-1,2-diol]: the ΔTm at 500 µM on KMT9 [2] (setting [6]) was no more than 10 °C.

Consider `O[C@@H]1[C@H](O)[C@@H]([C@H]2CCCNC2)C[C@H]1n1ccc2c(C(F)F)ncnc21` [Compound 403, (1R,2S,3R,5R)-3-(4-(difluoromethyl)-7H-pyrrolo[2,3-d]pyrimidin-7-yl)-5-((R)-piperidin-3-yl) cyclopentane-1,2-diol], for which the ΔTm at 500 µM on KMT9 [2] (setting [6]) is no more than 10 °C.

Consider `Nc1nc(Cl)nc2c1c(-c1ccn(S(=O)(=O)c3ccccc3)n1)cn2[C@@H]1C[C@H](C2CCN(CC3CC3)CC2)[C@@H](O)[C@H]1O` [Compound 520, (1R,2S,3R,5R)-3-{4-Amino-5-[1-(benzenesulfonyl)pyrazol-3-yl]-2-chloropyrrolo[2,3-d]pyrimidin-7-yl}-5-[1-(cyclopropylmethyl)piperidin-4-yl]cyclopentane-1,2-diol], for which, at KMT9 [1] (His-tag labelled KMT9 20 nM, read-out: MST (Kd)), the Kd is no more than 10 nM. Besides, the ΔTm at 500 µM on KMT9 [2] (setting [6]) was greater than 20 °C.

`CNc1ncnc2c1ccn2[C@@H]1C[C@H]([C@@H]2C[C@@H]2CCCNCCc2ccccc2)[C@@H](O)[C@H]1O` [Compound 683, (1R,2S,3R,5R)-3-(4-(methylamino)-7H-pyrrolo[2,3-d]pyrimidin-7-yl)-5-((1R,2S)-2-(3-(phenethylamino)propyl)cyclopropyl)cyclopentane-1,2-diol]: at KMT9 [1] (setting [4]), the Kd was greater than 1000 nM. For the same compound, the ΔTm at 500 µM at KMT9 [2] (setting [5]) was no more than 10 °C.
